Laboratory results as given in patent US4312867A, “Antibacterial compounds, processes for their preparation and compositions containing them” (Beecham Group Limited, priority 1979, dated 1982).
Converted amounts (≈) assume the structure as drawn. Like-named read-outs stand apart in the source and are kept apart here.

What was measured:
E. coli NCTC 10418 [1] = test: MIC human bacteria (Table 1), serial dilution in nutrient agar; type: cell-based; settings: Escherichia coli, NCTC10418; E. coli NCTC 10418; nutrient agar with 5% chocolated horse blood; read-out: MIC
E. coli ESS = test: as above; type: cell-based; settings: Escherichia coli
P. mirabilis 889 = test: as above; type: cell-based; settings: Proteus mirabilis
K. aerogenes A = test: as above; type: cell-based; settings: Klebsiella aerogenes, nutrient agar with 5% chocolated horse blood
Ps. aeruginosa 10662 = test: as above; type: cell-based; settings: Pseudomonas aeruginosa, nutrient agar with 5% chocolated horse blood
[2] = system: Pasteurella multocida 1633; test: as above; type: cell-based
[3] = system: Haemophilus influenzae Q1; test: as above; type: cell-based
[4] = system: Haemophilus influenzae Wy21; test: as above; type: cell-based; settings: Haemophilus influenzae Wy21; nutrient agar with 5% chocolated horse blood; read-out: MIC
[5] = system: Neisseria catarrhalis 1502; test: as above; type: cell-based; settings: nutrient agar with 5% chocolated horse blood
Bacillus subtilis 6633 = test: as above; type: cell-based; settings: nutrient agar with 5% chocolated horse blood
[6] = system: Corynebacterium xerosis 9755; test: as above; type: cell-based; settings: nutrient agar with 5% chocolated horse blood, read-out: MIC
Sarcina lutea 8340 = test: as above; type: cell-based; settings: Micrococcus luteus, nutrient agar with 5% chocolated horse blood, read-out: MIC
Staph aureus Oxford [7] = test: as above; type: cell-based; settings: Staphylococcus aureus, nutrient agar with 5% chocolated horse blood
Staph aureus Russell = test: as above; type: cell-based; settings: Staphylococcus aureus, nutrient agar with 5% chocolated horse blood
Staph aureus W2827 = test: as above; type: cell-based; settings: Staphylococcus aureus, nutrient agar with 5% chocolated horse blood
Strep faecalis I = test: as above; type: cell-based; settings: nutrient agar with 5% chocolated horse blood
Strep pyogenes A 64/848 = test: as above; type: cell-based; settings: nutrient agar with 5% chocolated horse blood
Strep pyogenes B 2788 = test: as above; type: cell-based; settings: nutrient agar with 5% chocolated horse blood
Strep pyogenes C 2761 = test: as above; type: cell-based; settings: nutrient agar with 5% chocolated horse blood
Strep pneumoniae CN33 = test: as above; type: cell-based; settings: nutrient agar with 5% chocolated horse blood
E. coli NCTC 10418 [8] = test: MIC veterinary bacteria (Table 2), serial dilution in agar; type: cell-based; settings: Escherichia coli, NCTC10418; E. coli NCTC 10418; diagnostic sensitivity test agar; read-out: MIC
E. coli E1 = test: as above; type: cell-based; settings: Escherichia coli, diagnostic sensitivity test agar
S. dublin S7 = test: as above; type: cell-based; settings: Salmonella enterica, diagnostic sensitivity test agar
S. typhimurium S18 = test: as above; type: cell-based; settings: Salmonella enterica, diagnostic sensitivity test agar
Bord bronchiseptica B08 = test: as above; type: cell-based; settings: diagnostic sensitivity test agar
Bord bronchiseptica B09 = test: as above; type: cell-based; settings: diagnostic sensitivity test agar
Past multocida PA1 = test: as above; type: cell-based; settings: diagnostic sensitivity test agar
Past multocida PA2 = test: as above; type: cell-based; settings: diagnostic sensitivity test agar
[9] = system: Erysipelothrix rhusiopathiae NCTC 8163; test: as above; type: cell-based; settings: NCTC8163; Erysipelothrix rhusiopathiae NCTC 8163; diagnostic sensitivity test agar; read-out: MIC
[10] = system: Staph aureus B4 (pen. resis); test: as above; type: cell-based; settings: Staphylococcus aureus; Staph aureus B4 (pen. resis); diagnostic sensitivity test agar; read-out: MIC
[11] = system: Staph aureus 152 (pen. sens); test: as above; type: cell-based; settings: Staphylococcus aureus, diagnostic sensitivity test agar
Staph aureus Oxford [12] = test: as above; type: cell-based; settings: Staphylococcus aureus; Staph aureus Oxford; diagnostic sensitivity test agar; read-out: MIC
[13] = system: Strep suis (group D) SPS11; test: as above; type: cell-based; settings: diagnostic sensitivity test agar
Strep uberis SPU1 = test: as above; type: cell-based; settings: diagnostic sensitivity test agar
Strep dysgalaciae SPD1 = test: as above; type: cell-based; settings: diagnostic sensitivity test agar
Strep agalactiae SPA1 = test: as above; type: cell-based; settings: diagnostic sensitivity test agar
[14] = Serum binding by ultrafiltration of porcine serum; type: in vitro ADME; settings: pig, 8 mcg/ml, microbiological assay, read-out: % bound to pig serum (converted)
Description: Serum binding was assessed by ultrafiltration of porcine serum containing compounds at 8 mcg/ml, and through an Amicon CF50A ultrafiltration cone. Separation of ultrafiltrate was achieved by centrifugation. Unbound concentrations of compound were measured in the ultrafiltrate by microbiological assay (B. subtilis ATCC 6633) against standards prepared in saline.

[15] = system: Corynebacterium pyogenes CY1; test: MIC veterinary bacteria (Table 2), serial dilution in agar; type: cell-based; settings: Trueperella pyogenes, diagnostic sensitivity test agar

C/C(=C\C(=O)OCCCCCCCCS(N)(=O)=O)CC1OCC(CC2OC2C(C)C(C)O)C(O)C1O (stereo not shown) [Example 3, 8-Sulphamoyloctyl monate A]
MIC (E. coli NCTC 10418 [1]): > 100 mg/L | MIC (E. coli ESS; E. coli ESS, nutrient agar with 5% chocolated horse blood, read-out: MIC): 0.5 mg/L (≈ 0.933 µM) | MIC (P. mirabilis 889; P. mirabilis 889, nutrient agar with 5% chocolated horse blood, read-out: MIC): > 100 mg/L | MIC (K. aerogenes A): > 100 mg/L | MIC (Ps. aeruginosa 10662): > 100 mg/L | MIC ([2]; Pasteurella multocida, 1633): 1 mg/L (≈ 1.87 µM) | MIC ([3]; Haemophilus influenzae Q1, nutrient agar with 5% chocolated horse blood, read-out: MIC): 0.2 mg/L (≈ 0.373 µM) | MIC [4]: 0.2 mg/L (≈ 0.373 µM) | MIC [5]: 1 mg/L (≈ 1.87 µM) | MIC (Bacillus subtilis 6633): 0.2 mg/L (≈ 0.373 µM) | MIC [6]: > 100 mg/L | MIC (Sarcina lutea 8340): > 100 mg/L | MIC (Staph aureus Oxford [7]): 1 mg/L (≈ 1.87 µM) | MIC (Staph aureus Russell): 1 mg/L (≈ 1.87 µM) | MIC (Staph aureus W2827): 1 mg/L (≈ 1.87 µM) | MIC (Strep faecalis I): > 100 mg/L | MIC (Strep pyogenes A 64/848): 0.5 mg/L (≈ 0.933 µM) | MIC (Strep pyogenes B 2788): 1 mg/L (≈ 1.87 µM) | MIC (Strep pyogenes C 2761): 1 mg/L (≈ 1.87 µM) | MIC (Strep pneumoniae CN33): 0.5 mg/L (≈ 0.933 µM) | MIC (E. coli NCTC 10418 [8]): > 80 mg/L | MIC (E. coli E1): > 80 mg/L | MIC (S. dublin S7): > 80 mg/L | MIC (S. typhimurium S18): > 80 mg/L | MIC (Bord bronchiseptica B08): 80 mg/L (≈ 149 µM) | MIC (Bord bronchiseptica B09): 40 mg/L (≈ 74.7 µM) | MIC (Past multocida PA1): 1.25 mg/L (≈ 2.33 µM) | MIC (Past multocida PA2): 0.156 mg/L (≈ 0.291 µM) | MIC [9]: 10 mg/L (≈ 18.7 µM) | MIC [10]: 0.625 mg/L (≈ 1.17 µM) | MIC [11]: 0.625 mg/L (≈ 1.17 µM) | MIC (Staph aureus Oxford [12]): 0.625 mg/L (≈ 1.17 µM) | MIC [13]: 20 mg/L (≈ 37.3 µM) | MIC (Strep uberis SPU1): 1.25 mg/L (≈ 2.33 µM) | MIC (Strep dysgalaciae SPD1): 2.5 mg/L (≈ 4.67 µM) | MIC (Strep agalactiae SPA1): 2.5 mg/L (≈ 4.67 µM) | fraction unbound [14]: 0.035

C/C(=C\C(=O)OCCCCCCS(N)(=O)=O)CC1OCC(CC2OC2C(C)C(C)O)C(O)C1O (stereo not shown) [Example 2, 6-Sulphamoylhexyl monate A]
MIC (E. coli NCTC 10418 [1]): > 100 mg/L | MIC (E. coli ESS): 0.5 mg/L (≈ 0.985 µM) | MIC (P. mirabilis 889; 889): 50 mg/L (≈ 98.5 µM) | MIC (K. aerogenes A): > 100 mg/L | MIC (Ps. aeruginosa 10662): > 100 mg/L | MIC ([2]; Pasteurella multocida 1633, nutrient agar with 5% chocolated horse blood, read-out: MIC): 2.5 mg/L (≈ 4.92 µM) | MIC ([3]; Haemophilus influenzae, Q1): 0.1 mg/L (≈ 0.197 µM) | MIC (Bacillus subtilis 6633): 0.5 mg/L (≈ 0.985 µM) | MIC [6]: > 100 mg/L | MIC (Sarcina lutea 8340): > 100 mg/L | MIC (Staph aureus Oxford [7]): 5 mg/L (≈ 9.85 µM) | MIC (Staph aureus Russell): 5 mg/L (≈ 9.85 µM) | MIC (Staph aureus W2827): 5 mg/L (≈ 9.85 µM) | MIC (Strep faecalis I): > 100 mg/L | MIC (Strep pyogenes A 64/848): 0.5 mg/L (≈ 0.985 µM) | MIC (Strep pyogenes B 2788): 1 mg/L (≈ 1.97 µM) | MIC (Strep pyogenes C 2761): 1 mg/L (≈ 1.97 µM) | MIC (Strep pneumoniae CN33): 0.2 mg/L (≈ 0.394 µM) | MIC (E. coli NCTC 10418 [8]): > 80 mg/L | MIC (E. coli E1): > 80 mg/L | MIC (S. dublin S7): > 80 mg/L | MIC (S. typhimurium S18): > 80 mg/L | MIC (Bord bronchiseptica B08): 20 mg/L (≈ 39.4 µM) | MIC (Bord bronchiseptica B09): 10 mg/L (≈ 19.7 µM) | MIC (Past multocida PA1): 0.312 mg/L (≈ 0.615 µM) | MIC (Past multocida PA2): 0.039 mg/L (≈ 0.0768 µM) | MIC [9]: 20 mg/L (≈ 39.4 µM) | MIC [15]: 10 mg/L (≈ 19.7 µM) | MIC [10]: 2.5 mg/L (≈ 4.92 µM) | MIC [11]: 1.25 mg/L (≈ 2.46 µM) | MIC (Staph aureus Oxford [12]): 2.5 mg/L (≈ 4.92 µM) | MIC [13]: 2.5 mg/L (≈ 4.92 µM) | MIC (Strep uberis SPU1): 0.625 mg/L (≈ 1.23 µM) | MIC (Strep dysgalaciae SPD1): 0.625 mg/L (≈ 1.23 µM) | MIC (Strep agalactiae SPA1): 1.25 mg/L (≈ 2.46 µM) | fraction unbound [14]: 0.287
